Results on seven molecules are retold here after publication PMC3925368 (Bioorganic & medicinal chemistry letters, 2013).

The subject of one data set is T. brucei brucei. Conditions: ip doses as low as 3 × 1 mg/kg; cure = survival more than 30 days beyond controls; cited from earlier work.
The conditions of data set [1]: at micromolar concentrations; cited from earlier work.
A further data set deals with T. brucei rhodesiense. The format is in vivo. To be noted: for Cures: cure = survival for more than 60 days after infection without a parasitemia relapse, cured/treated mice; for In vivo toxicity: 4×50 mg/kg ip in infected mice.
For data set [2], the system named is T. brucei rhodesiense STIB900. The class given is cell-based, Trypanosoma brucei rhodesiense. Conditions: STIB900 strain, in vitro.
[3] abbreviates: 4×50 mg/kg ip on days 3–6 post-infection.

Turning to `CS(=O)(=O)O.O=C(Nc1ccc(C2=NCCN2)cc1)c1ccc(C(=O)Nc2ccc(C3=NCCN3)cc2)cc1` [Compound 1, N,N'-Bis[4-(4,5-dihydro-1H-imidazol-2-yl)phenyl]terephthalamide dimesylate], in the data set on T. brucei brucei, the “Cure of T. brucei brucei-infected mice” value is “completely cured”. Besides, the Mutagenicity result in data set [1] is “mutagenic”.
As for `CS(=O)(=O)O.O=C(Nc1ccc(C2=NCCN2)cc1)c1cccc(C(=O)Nc2ccc(C3=NCCN3)cc2)c1` [Compound 2, N,N'-Bis[4-(4,5-dihydro-1H-imidazol-2-yl)phenyl]isophthalamide dimesylate], the Cures entry in the data set on T. brucei rhodesiense (setting [3]) is “completely curative”.
For the molecule `CS(=O)(=O)O.O=C(Nc1ccc(C2=NCCN2)cc1)c1ccc(NC(=O)c2ccc(C3=NCCN3)cc2)cc1` [Compound 5, N-[4-(4,5-Dihydro-1H-imidazol-2-yl)phenyl]-4-[[4-(4,5-dihydro-1H-imidazol-2-yl)benzoyl]amino]benzamide dimesylate], the In vivo toxicity entry in the data set with T. brucei rhodesiense is listed as “no in vivo toxicity”.
`CS(=O)(=O)O.O=C(Nc1ccc(C2=NCCN2)cc1)c1ccc(-c2ccc(C(=O)Nc3ccc(C4=NCCN4)cc3)cc2)cc1` [Compound 8, N,N'-Bis[4-(4,5-dihydro-1H-imidazol-2-yl)phenyl]biphenyl-4,4’-dicarboxamide dimesylate]: the Cures entry with T. brucei rhodesiense (setting [3]) is reported as “ineffective”.
In the case of `CS(=O)(=O)O.O=C(Nc1ccc(C2=NCCN2)cc1)c1ccc(C2=NCCN2)cc1` [Compound 10, N-[4-(4,5-Dihydro-1H-imidazol-2-yl)phenyl]-4-(4,5-dihydro-1H-imidazol-2-yl)benzamide dimesylate], the In vivo toxicity result with T. brucei rhodesiense is on record as “no in vivo toxicity”.
As to `O=C(Nc1ccc(C2=NCCN2)cc1)c1ccc(-c2cc3ccc(C4=NCCN4)cc3[nH]2)cc1` [Compound 11, 6-(4,5-Dihydro-1H-imidazol-2-yl)-2-[4-[[[4-(4,5-dihydro-1H-imidazol-2-yl)phenyl]amino]carbonyl]phenyl]indole], the “T. b. rhodesiense IC50” value in data set [2] is on record as “single digit nM”.
In the case of `CS(=O)(=O)O.O=C(NCc1ccc(C2=NCCN2)cc1)c1ccc(-c2cc3ccc(C4=NCCN4)cc3[nH]2)cc1` [Compound 12, 6-(4,5-Dihydro-1H-imidazol-2-yl)-2-[4-[[[[4-(4,5-dihydro-1H-imidazol-2-yl)phenyl]methyl]amino]carbonyl]phenyl]indole dimesylate], the “T. b. rhodesiense IC50” value in data set [2] was “single digit nM”. For the same molecule, in the data set on T. brucei rhodesiense, the In vivo toxicity entry is “lethal”. For the same molecule, in the data set with T. brucei rhodesiense (setting [3]), the Cures entry is listed as “ineffective”. For the same molecule, the “Mean Survival Days” value in the data set with T. brucei rhodesiense (4×50 mg/kg ip on days 3–6 post-infection, mice with and without parasitemia relapse) is “toxic ^d”.
